Columns and labels:
[1] = test system: TopBP1-BRCT7/8 binding to pS1159 peptide; assay: pS1159 peptide binding assay (streptavidin Sepharose pulldown); settings: FIG. 1f
Method: The GST fusion proteins in Escherichia coli strain BL21 were induced by 0.1 mM IPTG (isopropyl-β-D-thiogalactopyranoside) and purified according to the standard protocol. The GST portion on GST-TopBP1-BRCT7/8 was excised by Pre-Scission protease (Pharmacia). Two purified (>98%) biotin conjugated peptides were synthesized from Sigma Genosys. The peptide sequence is derived from the surrounding sequence of TopBP1 S1159: pP, Btn-[…]pSer^1159NLQWPS and nP, Btn-[…]. Purified TopBP1-BRCT7/8 (2 μg) was incubated with compounds in NETN-A buffer (50 mM NaCl, 1 mM EDTA, 20 mM Tris, 0.5% NP-40) at 4° C. for 3 h with constant rotation. Then 2 μg of purified pP or nP peptides were added and rotated for another 3 h at 4° C. The biotin-conjugated peptides were then pulled down with streptavidin-Sepharose (Amersham). The beads were washed six times with NETN-B buffer (100 mM NaCl, 1 mM EDTA, 0.2 mM phenylmethylsulfonyl fluoride) and then subjected to sodium dodecyl sulfate-polyacrylamide gel electrophoresis (SDS-PAGE) and analyzed by Western blotting with anti-TopBP1 antibody (1:1000, BL893, Bethyl Laboratories).

[2] = test system: TopBP1-BRCT7/8 binding to p53(DBD); assay: GST-p53(DBD) pulldown assay; settings: FIG. 1g
Method: Purified TopBP1-BRCT7/8 (2 μg) was incubated with compounds in NETN-A buffer as above at 4° C. for 3 h with constant rotation. Then purified GST-p53-DBD or GST (2 μg) were added and rotated for another 3 h at 4° C. GST-p53-DBD was then pulled down with glutathione-Sepharose. The beads were washed six times with NETN-B buffer and then subjected to SDS-PAGE analysis.

## O=C(O)CN(CC(=O)O)Cc1cc2c(cc1O)Oc1cc(O)c(CN(CC(=O)O)CC(=O)O)cc1C21OC(=O)c2ccccc21 [Calcein, calcein]
[1]
  concentrations at which TopBP1/pS1159 interaction was blocked: submicromolar
[1]; pS1159 peptide binding
  effective amount of Calcein that needs to be present: 60 to 300 nM
[2]
  concentrations at which TopBP1/p53(DBD) interaction was blocked: submicromolar
[2]; GST-p53(DBD) pulldown
  effective amount of Calcein that needs to be present: 60 to 300 nM

From patent publication US9636323B2, “Method of treating cancer that overexpresses TopBP1” (Baylor College of Medicine, priority 2014, dated 2017)
